Values quoted from earlier work as cited in article PMC8131289, “Direct Comparison of the Prediction of the Unbound Brain-to-Plasma Partitioning Utilizing Machine Learning Approach and Mechanistic Neuropharmacokinetic Model” (The AAPS Journal, 2021).
Where two headings read alike, the source gives them in different places.

What was measured:
[1] = molecular target: MDR1 (Homo sapiens, UniProt P08183)
[2] = molecular target: T1, BCRP (Homo sapiens, UniProt Q9UNQ0)
T1 sequence (Q9UNQ0 1-655): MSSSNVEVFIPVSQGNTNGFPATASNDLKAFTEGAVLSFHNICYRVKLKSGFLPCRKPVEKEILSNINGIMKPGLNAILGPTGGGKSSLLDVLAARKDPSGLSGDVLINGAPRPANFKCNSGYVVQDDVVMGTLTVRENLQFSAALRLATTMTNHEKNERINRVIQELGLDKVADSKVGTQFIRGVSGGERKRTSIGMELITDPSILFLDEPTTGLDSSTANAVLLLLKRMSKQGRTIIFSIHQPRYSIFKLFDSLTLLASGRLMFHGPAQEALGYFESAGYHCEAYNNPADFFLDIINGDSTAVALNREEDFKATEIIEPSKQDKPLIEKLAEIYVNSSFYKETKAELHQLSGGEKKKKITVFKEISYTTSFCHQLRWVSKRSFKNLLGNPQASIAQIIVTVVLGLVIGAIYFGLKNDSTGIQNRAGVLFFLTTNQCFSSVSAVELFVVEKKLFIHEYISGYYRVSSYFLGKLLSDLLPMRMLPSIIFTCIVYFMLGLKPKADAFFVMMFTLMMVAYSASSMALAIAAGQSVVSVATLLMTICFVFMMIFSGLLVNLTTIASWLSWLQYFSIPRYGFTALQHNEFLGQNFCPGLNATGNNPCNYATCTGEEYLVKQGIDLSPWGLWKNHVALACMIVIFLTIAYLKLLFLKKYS

[3] = external dataset
[4] = MDCK-MDR1 cells, external dataset, ref (17)
[5] = MDCK-BCRP cells, external dataset, ref (17)

Sequence of MDR1 (P08183 whole entry): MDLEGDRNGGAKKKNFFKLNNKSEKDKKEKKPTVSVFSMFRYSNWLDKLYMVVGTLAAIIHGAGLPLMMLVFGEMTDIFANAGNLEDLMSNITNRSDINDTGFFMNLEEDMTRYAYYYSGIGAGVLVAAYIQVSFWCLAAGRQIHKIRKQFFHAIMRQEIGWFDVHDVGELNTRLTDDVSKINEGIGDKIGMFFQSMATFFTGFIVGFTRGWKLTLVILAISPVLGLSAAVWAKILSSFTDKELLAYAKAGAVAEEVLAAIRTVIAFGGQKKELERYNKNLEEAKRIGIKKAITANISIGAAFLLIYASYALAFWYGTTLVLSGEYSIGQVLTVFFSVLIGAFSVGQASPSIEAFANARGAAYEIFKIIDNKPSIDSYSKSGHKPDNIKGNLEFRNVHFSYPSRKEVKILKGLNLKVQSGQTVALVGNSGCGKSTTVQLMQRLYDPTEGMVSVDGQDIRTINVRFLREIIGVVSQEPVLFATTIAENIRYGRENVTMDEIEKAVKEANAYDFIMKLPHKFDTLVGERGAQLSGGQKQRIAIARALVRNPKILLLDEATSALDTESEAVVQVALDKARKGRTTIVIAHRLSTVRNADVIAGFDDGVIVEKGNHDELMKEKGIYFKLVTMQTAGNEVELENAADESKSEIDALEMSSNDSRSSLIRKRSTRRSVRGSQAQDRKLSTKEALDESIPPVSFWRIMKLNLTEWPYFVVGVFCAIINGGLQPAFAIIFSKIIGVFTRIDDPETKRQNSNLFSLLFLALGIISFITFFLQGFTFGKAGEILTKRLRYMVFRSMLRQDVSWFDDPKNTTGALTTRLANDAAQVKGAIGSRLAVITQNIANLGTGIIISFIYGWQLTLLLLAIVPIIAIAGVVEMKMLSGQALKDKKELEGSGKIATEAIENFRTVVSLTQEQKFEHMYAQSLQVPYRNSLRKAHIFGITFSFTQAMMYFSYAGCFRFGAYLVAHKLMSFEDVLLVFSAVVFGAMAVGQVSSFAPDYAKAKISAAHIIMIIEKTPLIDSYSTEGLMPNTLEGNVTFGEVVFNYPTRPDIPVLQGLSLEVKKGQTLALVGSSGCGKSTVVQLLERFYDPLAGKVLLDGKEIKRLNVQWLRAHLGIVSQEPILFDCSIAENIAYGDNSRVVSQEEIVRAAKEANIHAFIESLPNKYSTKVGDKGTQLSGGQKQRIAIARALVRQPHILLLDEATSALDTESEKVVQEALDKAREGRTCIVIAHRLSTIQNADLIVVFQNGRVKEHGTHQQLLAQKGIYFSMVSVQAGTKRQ

| Compound | Efflux ratio MDR1 [1, 4] | Efflux ratio BCRP [2, 5] | Kp,uu,brain ([3]; ref (30)) | other results |
| --- | --- | --- | --- | --- |
| Cc1cc(=O)n(-c2ccccc2)n1C [Antipyrine] |  |  |  | Efflux ratio MDR1 ([1]; MDCK-MDR1): 0.91; Efflux ratio BCRP [2]: 0.96 |
| CC(NC(C)(C)C)C(=O)c1cccc(Cl)c1 (centres unmarked) [Bupropion] | 1.2 | 0.80 |  |  |
| NC(=O)N1c2ccccc2C=Cc2ccccc21 [Carbamazepine] | 1.26 | 0.88 | 0.389 |  |
| C#Cc1cccc(Nc2ncnc3cc(OCCOC)c(OCCOC)cc23)c1 [Erlotinib] |  |  |  | Kp,uu,brain ([3]; ref (17)): 0.0614 |
| CNCCC(Oc1ccc(C(F)(F)F)cc1)c1ccccc1 (centres unmarked) [Fluoxetine] |  |  | 2.14 |  |
| COc1ccc2c(c1)c(CC(=O)O)c(C)n2C(=O)c1ccc(Cl)cc1 [Indomethacin] | 4.4 | 20 |  |  |
| CN(C)C(=O)C(CCN1CCC(O)(c2ccc(Cl)cc2)CC1)(c1ccccc1)c1ccccc1 [Loperamide] |  |  | 0.0244 |  |
| CN(Cc1cnc2nc(N)nc(N)c2n1)c1ccc(C(=O)N[C@@H](CCC(=O)O)C(=O)O)cc1 [Methotrexate] | 1.42 |  |  |  |
| CN1CCN2c3ncccc3Cc3ccccc3C2C1 (centres unmarked) [Mirtazapine] |  |  | 1.61 |  |
| CC(C)NCC(O)COc1cccc2[nH]ccc12 (centres unmarked) [Pindolol] | 5.4 |  |  |  |
| CN[C@H]1CC[C@@H](c2ccc(Cl)c(Cl)c2)c2ccccc21 [Sertraline] | 0.46 |  |  |  |
| CSc1ccc2c(c1)N(CCC1CCCCN1C)c1ccccc1S2 (centres unmarked) [Thioridazine] | 2.6 | 0.57 | 1.43 |  |
| COc1ccc(C(CN(C)C)C2(O)CCCCC2)cc1 (centres unmarked) [Venlafaxine] |  |  | 1.07 |  |
